These results are taken from the Deep4Chem optical property database.

A short description of the data set: solvent given as SMILES.

Turning to `CCCCCCOc1cc(C=C2C(=C(C#N)C#N)c3ccccc3C2=C(C#N)C#N)c(OCCCCCC)cc1C=C1C(=C(C#N)C#N)c2ccccc2C1=C(C#N)C#N`, the absorption maximum (in ClCCl) worked out at 542 nm.

Molecule `CCC1(CC)c2ccccc2-c2c1c1c(c3c2C(CC)(CC)c2cc(/C=C/c4cccs4)ccc2-3)C(CC)(CC)c2ccccc2-1` showed an absorption maximum (in C1CCOC1) of 382 nm.

With `CC/[NH+]=c1\cc2oc3cc(NCCC(=O)NCCCCC(NC(C)=O)C(=O)OC)c4ccccc4c3nc-2cc1C` (stereo not drawn), the absorption maximum turned out to be 590 nm (in CCO) and 590 nm (in O).

In turn, `CC(C)(C)NS(=O)(=O)c1ccc2c(c1)C(=O)/C(=C1\Sc3ccc(S(=O)(=O)NC(C)(C)C)cc3C1=O)S2` displayed an absorption maximum (in C1COCCO1) of 538 nm, an absorption maximum (in CN(C)C=O) of 543 nm and an absorption maximum (in CS(C)=O) of 546 nm.

Turning to `CC(C)[Si](C#Cc1c2cc3ccccc3cc2c(C#C[Si](C(C)C)(C(C)C)C(C)C)c2nc3ccccc3nc12)(C(C)C)C(C)C`, the absorption maximum runs as follows: (in CCCCCC) 693 nm; (in ClCCl) 697 nm.

Under “in CN(C)C=O”, `Cc1ccc2[nH]c(-c3ccc(-c4ccc(-c5ccc(-c6nc7cc(C)ccc7[nH]6)cc5)cc4)cc3)nc2c1` showed an absorption maximum of 351 nm.

For the setting “in ClC(Cl)Cl”, `COc1ccc(-c2oc3cccc4c5c(-c6ccc(OC)c(OC)c6)/c(=N/S(=O)(=O)C(F)(F)F)oc6cccc(c2c34)c65)cc1OC` displayed an absorption maximum of 485 nm.

`COc1ccc(C2=C(C)C3=C(c4c(-c5ccccn5)nc5ccccn45)c4c(C)cc(C)n4[B-](F)(F)[N+]3=C2C)cc1`: where the note is “in ClCCl”, the absorption maximum came to 535 nm.

Take `COC(=O)/C=C/c1sc(-c2ccc(N(C)C)cc2)c(-c2cccnc2)c1N`: where the note is “in CC#N”, the absorption maximum turned out to be 415 nm.

With `COc1ccc2cc(-c3cc(-c4ccccc4)c4n3[B-](F)(F)[N+]3=C5C=NC=CN5[B-](F)(F)[N+]3=C4)ccc2c1`, the absorption maximum (in ClCCl) stood at 536 nm.

The molecule `CN(C)c1ccc(C2=[N+]3C(=Nc4c(-c5ccc(O)cc5)cc(-c5ccc(N(C)C)cc5)n4[B-]3(F)F)C(c3ccc(O)cc3)=C2)cc1` showed an absorption maximum (in C1CCOC1) of 775 nm, an absorption maximum (in CS(C)=O) of 794 nm and an absorption maximum (in Cc1ccccc1) of 778 nm.

Molecule `CC1(C)c2ccccc2N(c2ccc(C(=O)/C=C(\O)c3ccc(N4c5ccccc5C(C)(C)c5ccccc54)cc3)cc2)c2ccccc21` yielded an absorption maximum (in Cc1ccccc1) of 406 nm.

`C[Si]1(C)O[Si](C)(C)c2cc3nc4ccc([N+](=O)[O-])cc4c(-c4ccccc4)c3cc2[Si](C)(C)O1`: the absorption maximum (in ClCCl) is on record as 376 nm.

`CCc1ccc(-n2c3ccccc3c3cc4c(cc32)c2ccccc2n4-c2ccc(CC)s2)s1` registered an absorption maximum (in ClC(Cl)Cl) of 398 nm.

With `CCCCCCc1ccc(-n2c3[n+](c4c5ccccc5c5ccccc5c42)[B-](C)(C)c2cc(N(c4ccccc4)c4ccccc4)ccc2-3)cc1`, the absorption maximum stood at 393 nm (in C1CCOC1), 390 nm (in CC#N), 397 nm (in Cc1ccccc1) and 392 nm (in ClCCl).

With `N#Cc1ccc(-c2cc3c(ccc4sccc43)s2)cc1`, for the setting “in ClCCl”, the absorption maximum was 346 nm.

Molecule `c1ccc(-c2cc(-c3ccc(-c4nc(-c5ccccn5)c(-c5ccccn5)[nH]4)cc3)cc(-c3ccccn3)n2)nc1` had an absorption maximum (in C1CCOC1) of 371 nm; an absorption maximum (in CC#N) of 380 nm; an absorption maximum (in CC(C)=O) of 381 nm; an absorption maximum (in CCO) of 326 nm; an absorption maximum (in CCOC(C)=O) of 360 nm; an absorption maximum (in CN(C)C=O) of 337 nm. Also, the absorption maximum (in CO) is 321 nm, the absorption maximum (in CS(C)=O) is listed as 338 nm, the absorption maximum (in ClC(Cl)Cl) is 408 nm and the absorption maximum (in ClCCl) was 388 nm.

The molecule `CCCCCCCCc1ccc(-c2c3cc(-c4cc(CCCCCCCC)c(-c5ccc(-c6sc(/C=C7\SC(N8CCCCC8)=NC7=O)cc6CCCCCCCC)s5)s4)sc3c(-c3ccc(CCCCCCCC)s3)c3cc(-c4cc(CCCCCCCC)c(-c5ccc(-c6sc(/C=C7\SC(N8CCCCC8)=NC7=O)cc6CCCCCCCC)s5)s4)sc23)s1` registered an absorption maximum (in ClC(Cl)Cl) of 475 nm.

`O=c1oc2cccc3c4cccc5ccc6c7ccccc7c1c(c23)c6c54` showed an absorption maximum (in C1CCOC1) of 409 nm.

Take `CCCCCCCCCCCCCCCCn1c(-c2cc(-c3nc4ccccc4n3CCCCCCCCCCCCCCCC)cc(-c3nc4ccccc4n3CCCCCCCCCCCCCCCC)c2)nc2ccccc21`: the absorption maximum (in ClCCl) is recorded as 301 nm.

`CC1(C)c2ccccc2-c2cc3c4ccccc4n(-c4ccc(-c5nc(-c6ccccc6)nc(-c6ccccc6)n5)cc4)c3cc21` returned an absorption maximum (in Cc1ccccc1) of 362 nm.

Where the note is “in C1CCOC1”, `C1=Cc2ccccc2C(=Cc2ccc(C=C3c4ccccc4C=Cc4ccccc43)cc2)c2ccccc21` registered an absorption maximum of 333 nm.

`c1ccc(-c2cccc3ncc(-c4ccccc4)n23)cc1` registered an absorption maximum (in ClCCl) of 337 nm.

As for `COc1cc2c(cc1-c1ccccc1)Cc1c3c(c4c(c1-2)-c1cc(OC)c(-c2ccccc2)cc1C4)C(=O)N(CCC(C)C)C3=O`, the absorption maximum stood at 405 nm (in C1CCOC1); 406 nm (in CC#N); 407 nm (in CC(C)=O); 405 nm (in CCOC(C)=O); 413 nm (in CS(C)=O); 405 nm (in Cc1ccccc1). In addition, the absorption maximum is, setting by setting: (in ClC(Cl)Cl) 414 nm; (in ClCCl) 411 nm.

Turning to `CN(C)c1ccc(C(=O)Nc2ccc([N+](=O)[O-])cc2)cc1`, the absorption maximum is listed as 337 nm (in C1CCCCC1), 353 nm (in C1CCOC1), 354 nm (in CC#N) and 345 nm (in CCOCC).

As to `CCCCCCCCC1(CCCCCCCC)c2cc(-c3ccccc3)ccc2-c2ccc(-c3ccccc3)cc21`, the absorption maximum (in ClC(Cl)Cl) is 327 nm.

`O=C1c2ccccc2-c2c(-c3cccc(Cl)c3O)[nH]c(=O)n21`: the absorption maximum was found to be 388 nm (in CC#N), 393 nm (in CO) and 391 nm (in ClCCl).

Where the note is “in C1CCOC1”, `CC(C)(C)c1cc2c3c(c1)c1cc(C(C)(C)C)cc4c1n3B1c3c-2cccc3-c2cc(C(C)(C)C)cc3c5cc(C(C)(C)C)cc-4c5n1c23` gave an absorption maximum of 439 nm.

Molecule `Clc1cccc(-c2nc3sc4ccccc4c3s2)c1` returned an absorption maximum (in CS(C)=O) of 351 nm.

As to `COc1ccc2c(c1)CCc1c(-c3ccccc3)c3n(c1-2)[B-](F)(F)[N+]1=C2C=NC=CN2[B-](F)(F)[N+]1=C3`, the absorption maximum (in ClCCl) is given as 546 nm.

Take `CCCCCCCCOc1ccc2c3cccc4c(OCCCCCCCC)ccc(c5cccc1c52)c43`: the absorption maximum is given as 460 nm (in C1CCOC1); 462 nm (in Cc1ccccc1); 462 nm (in ClC(Cl)(Cl)Cl); 462 nm (in ClC(Cl)Cl); 461 nm (in ClCCl); 464 nm (in c1ccncc1).

In the case of `O=S(=O)(c1cccc(-n2c3ccccc3c3ccccc32)c1)c1cccc(-n2c3ccccc3c3ccccc32)c1`, the absorption maximum was 323 nm (in C1CCOC1), 338 nm (in Cc1ccccc1) and 338 nm (in ClC(Cl)Cl).

As to `N#CSC1=CC2=C(c3ccccc3)c3ccc(SC#N)n3[B-](F)(F)[N+]2=C1N1CCOCC1`, the absorption maximum turned out to be 560 nm (in CCCCCC), 554 nm (in CCOC(C)=O) and 558 nm (in ClCCl).

Molecule `CC(C)c1cc(C(C)C)c(B2c3ccccc3Oc3cc(N4c5ccccc5C5(c6ccccc6-c6ccccc65)c5ccccc54)ccc32)c(C(C)C)c1` showed an absorption maximum (in Cc1ccccc1) of 430 nm.
